# Where a name gives a salt, the structure may show the parent alone.
# Columns and labels:
# ZIKV MR766 = assay: Elimination of ZIKV from infected hNPCs (drug applied 2 h post infection, 3 days drug, 3 days drug-free); type: cell-based, Zika virus; conditions: for ZIKV infection of hNPCs at day 6: 3 days treatment followed by 3 days culture without drug; for ZIKV infection rate of hNPCs at day 3: day 3 of treatment
# Experimental: (A) Scheme to evaluate the elimination of ZIKV. At day 0, hNPCs were infected with ZIKV for 2 h. After removal of ZIKV infection medium, hNPCs were treated with drug candidates. At day 3, the culture medium was changed to fresh medium without compounds. The cells were maintained in drug-free culture until day 6 and used for immunohistochemistry and qRT-PCR. (B and C) Inhibitory curve and IC50 of HH calculated based on the infection rate (B) and normalized cell viability (C) (n=6). (D and E) Immunocytochemistry analysis (D) and the quantification of infection rate, cell apoptosis rate, and total cell number (E) of hNPCs on day 3 and day 6. Cells was fixed and stained with cleaved Caspase-3 (CAS3), ZIKV E and DAPI. Scale bars, 100 μm. (F) qRT-PCR analysis to monitor the total ZIKV vRNA in the supernatant of hNPC cultures on day 6. Scale bars, 200 μm. (n=3). (G) Vero cell reinfection assay to monitor the infective ZIKV vRNA in the supernatant of hNPC cultures at day 6 after ZIKV infection. Scale bars, 200 μm. (n=3). (H) Quantification of ZIKV infectious particles produced by ZIKV-infected hNPCs at day 6 by the Vero cell reinfection assay. (I) hNPCs with or without ZIKV infection treated with HH maintain hNPC marker expression and differentiation capacity. hNPCs with or without ZIKV MR766 infection were treated with 25 μM HH or DMSO for 3 days and then stained for SOX2, NESTIN and with DAPI. hNPCs with or without ZIKV infection and treated with HH or DMSO for 3 days were differentiated to cortical neurons. The cortical neurons were then fixed and stained for MAP2, TUJ1 and with DAPI. Scale bars, 100 μm. (n=3). (J) ZIKV (MR766 strain) dynamics in hNPCs. qRT-PCR analysis to quantify the total and replicating (−) strand vRNAs in the hNPCs at different time points post infection. […] (K) qRT-PCR analysis of hNPCs, on which 25 μM HH or DMSO were added at 24 h, 36 h and 48 h post-ZIKV (MR766 strain) infection and maintained for additional 3 days. p values were calculated by unpaired two-tailed Student's t-test. *p<0.05, **p<0.01 and ***p<0.001, if not mentioned specifically.
# HH eliminates virus from ZIKV infected hNPCs. To determine whether the drug candidates are capable of eliminating ZIKV in previously infected hNPCs, HH or AQ was applied 2 h post ZIKV infection (FIG. 2A).
# ZIKV-infected hNPCs were treated with HH or AQ for 3 days, followed by 3 days culture in drug-free medium. Immunocytochemical analysis of ZIKV E, cleaved-caspase-3 (CAS3) and DAPI were performed at day 0 (just before ZIKV infection), day 3, and day 6 to measure the ZIKV infection rate, cell death rate and total cell numbers, respectively. […] In addition, neither ZIKV vRNA, as indicated by qRT-PCR (FIG. 2F), or production of infectious ZIKV, as indicated by a Vero cell re-infection assay, was detected in day 6 supernatant of HH-treated conditions (FIGS. 2G and 2H). […] In contrast, hNPCs without HH treatment underwent significant cell death after 3 days of ZIKV infection, and there were no cells detected after cortical neuron differentiation (data not shown).
# Generation of inhibitory curves. hNPCs were plated on 96-well plates with Accutase digestion at 8.5×10^4/cm^2 density and incubated overnight. For generating inhibitory curves of compound for inhibiting ZIKV infection, cells were first treated with DMSO or different doses of hit compounds for 1 h before ZIKV infection. The cells were then infected with ZIKV MR766 at a MOI=0.125. After 2 h of infection, the virus-containing medium was replaced by fresh virus-free medium and compounds were added again to the same wells. For generating inhibitory curves of compound for eliminating ZIKV, compounds were instead added after ZIKV infection. After 3 days incubation, the cells were fixed and stained for ZIKV envelope protein (ZIKV E) and DAPI was used to stain cell nuclei. Plates were analyzed with the ImageXpress^MICRO Automated High-Content Analysis System. IC50 was calculated using MasterPlex Reader Fit 2010.
# [1] = system: transcriptional changes induced by ZIKV (MR766 strain) infection; assay: RNA-seq analysis of ZIKV infected hNPCs; type: cell-based, human; conditions: 72 h post-inoculation, 25 μM HH or 15 μM AQ
# [2] = compound applied 2 h post ZIKV infection
compound,measurement,setting,value
"CN1CCC2=C[C@H](O)[C@H]3OC(=O)c4cc5c(cc4[C@H]3[C@@H]21)OCO5 [HH, hippeastrine hydrobromide]",ZIKV infection of hNPCs at day 6,ZIKV MR766,remained undetectable
same,IC50 for eliminating versus inhibiting ZIKV,ZIKV MR766; [2],comparable IC50 values
same,elimination of ZIKV infection in previously infected hNPCs,ZIKV MR766; [2],capable of eliminating ZIKV infection
same,ZIKV infection rate of hNPCs at day 3,ZIKV MR766,undetectable levels
same,transcriptional changes induced by ZIKV infection (RNA-seq),[1],reversed the transcriptional changes
"CCN(CC)Cc1cc(Nc2ccnc3cc(Cl)ccc23)ccc1O [AQ, amodiaquine dihydrochloride dihydrate]",ZIKV infection of hNPCs at day 6,ZIKV MR766,comparable to the level of infection in the DMSO control condition
same,elimination of ZIKV infection in previously infected hNPCs,ZIKV MR766; [2],capable of eliminating ZIKV infection
same,ZIKV infection rate of hNPCs at day 3,ZIKV MR766,undetectable levels
same,transcriptional changes induced by ZIKV infection (RNA-seq),[1],reversed the transcriptional changes
